Measurements published in patent publication US9238631B2, “Radiolabeled amino acids for diagnostic imaging” (PIRAMAL IMAGING SA, priority 2011, dated 2016).

Test system: NCI-H460 tumor
Assay: In vivo biodistribution in NCI-H460 tumor bearing mice
Design: Summary: organs / Summary: Carcass / Summary: faeces: unit not given here
Conditions: for Summary: urine: in %; for Summary: Recovery: in % (unit assumed)
How it was run: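 Biodistribution of 18F-labeled compounds was assessed in female NMRI (nu/nu) mice bearing NCI-H460 tumors, established by inoculating 5×10^6 cells 8 to 10 days beforehand. Each mouse received 185 kBq of the fluorinated tracer; at least n=3 animals per time point were sacrificed, organs excised, and radioactivity quantified with a γ-counter.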

Summary: faeces (timepoint 1.0 h): 0.01
Summary: organs (timepoint 1.0 h): 12.93
Tail (% Dosis/g) (timepoint 1.0 h): 0.41 % Dosis/g
Thyroid (% Dosis/g) (timepoint 1.0 h): 0.29 % Dosis/g
Tumor (% Dosis/g) (timepoint 1.0 h): 6.47 % Dosis/g
Tumor/Tissue: Adrenals (timepoint 1.0 h): 23.74
Tumor/Tissue: Blood (timepoint 1.0 h): 33.90
Tumor/Tissue: Bone (timepoint 1.0 h): 41.80
Tumor/Tissue: Brain (timepoint 1.0 h): 142.1
Tumor/Tissue: Fat (timepoint 1.0 h): 302.3
Tumor/Tissue: Gallbladder (timepoint 1.0 h): 0.88
Tumor/Tissue: Heart (timepoint 1.0 h): 58.14
Tumor/Tissue: Intestine (timepoint 1.0 h): 7.45
Tumor/Tissue: Kidney (timepoint 1.0 h): 3.12
Tumor/Tissue: Liver (timepoint 1.0 h): 2.99
Tumor/Tissue: Lung (timepoint 1.0 h): 18.22
Tumor/Tissue: Muscle (timepoint 1.0 h): 103.4
Tumor/Tissue: Ovaries (timepoint 1.0 h): 8.99
Tumor/Tissue: Pancreas (timepoint 1.0 h): 1.82
Tumor/Tissue: Skin (timepoint 1.0 h): 10.56
Tumor/Tissue: Spleen (timepoint 1.0 h): 4.32
Tumor/Tissue: Stomach (timepoint 1.0 h): 6.88
Tumor/Tissue: Thyroid (timepoint 1.0 h): 22.49
Tumor/Tissue: Uterus (timepoint 1.0 h): 8.25
Uterus (% Dosis/g) (timepoint 1.0 h): 0.97 % Dosis/g
Summary: urine (timepoint 1.0 h): 82.05
Summary: Recovery (timepoint 1.0 h): 98.57
Adrenals (% Dosis/g) (timepoint 2.0 h): 0.27 % Dosis/g
Blood (% Dosis/g) (timepoint 2.0 h): 0.08 % Dosis/g
Bone (% Dosis/g) (timepoint 2.0 h): 0.14 % Dosis/g
Brain (% Dosis/g) (timepoint 2.0 h): 0.05 % Dosis/g
Fat (% Dosis/g) (timepoint 2.0 h): 0.02 % Dosis/g
Gallbladder (% Dosis/g) (timepoint 2.0 h): 8.93 % Dosis/g
Heart (% Dosis/g) (timepoint 2.0 h): 0.06 % Dosis/g
Intestine (% Dosis/g) (timepoint 2.0 h): 1.12 % Dosis/g
Liver (% Dosis/g) (timepoint 2.0 h): 0.87 % Dosis/g
Muscle (% Dosis/g) (timepoint 2.0 h): 0.05 % Dosis/g
Ovaries (% Dosis/g) (timepoint 2.0 h): 0.54 % Dosis/g
Pancreas (% Dosis/g) (timepoint 2.0 h): 1.48 % Dosis/g
Skin (% Dosis/g) (timepoint 2.0 h): 0.43 % Dosis/g
Spleen (% Dosis/g) (timepoint 2.0 h): 1.29 % Dosis/g
Stomach (% Dosis/g) (timepoint 2.0 h): 0.46 % Dosis/g
Summary: Carcass (timepoint 2.0 h): 5.26
Summary: faeces (timepoint 2.0 h): 1.74
Summary: organs (timepoint 2.0 h): 8.77
Tail (% Dosis/g) (timepoint 2.0 h): 1.44 % Dosis/g
Thyroid (% Dosis/g) (timepoint 2.0 h): 0.26 % Dosis/g
Tumor (% Dosis/g) (timepoint 2.0 h): 7.21 % Dosis/g
Tumor/Tissue: Adrenals (timepoint 2.0 h): 27.83
Tumor/Tissue: Blood (timepoint 2.0 h): 86.51
Tumor/Tissue: Bone (timepoint 2.0 h): 57.86
Tumor/Tissue: Brain (timepoint 2.0 h): 161.0
Tumor/Tissue: Fat (timepoint 2.0 h): 396.0
Tumor/Tissue: Gallbladder (timepoint 2.0 h): 0.81
Tumor/Tissue: Heart (timepoint 2.0 h): 126.5
Tumor/Tissue: Intestine (timepoint 2.0 h): 6.58
Tumor/Tissue: Kidney (timepoint 2.0 h): 11.24
Tumor/Tissue: Liver (timepoint 2.0 h): 8.46
Tumor/Tissue: Lung (timepoint 2.0 h): 29.67
Tumor/Tissue: Muscle (timepoint 2.0 h): 169.9
Tumor/Tissue: Ovaries (timepoint 2.0 h): 13.81
Tumor/Tissue: Pancreas (timepoint 2.0 h): 4.90
Tumor/Tissue: Skin (timepoint 2.0 h): 39.91
Tumor/Tissue: Spleen (timepoint 2.0 h): 5.82
Tumor/Tissue: Stomach (timepoint 2.0 h): 16.25
Tumor/Tissue: Thyroid (timepoint 2.0 h): 35.78
Tumor/Tissue: Uterus (timepoint 2.0 h): 15.37
Uterus (% Dosis/g) (timepoint 2.0 h): 0.50 % Dosis/g
Summary: urine (timepoint 2.0 h): 83.35
Summary: Recovery (timepoint 2.0 h): 99.00
Adrenals (% Dosis/g) (timepoint 4.0 h): 0.16 % Dosis/g
Blood (% Dosis/g) (timepoint 4.0 h): 0.04 % Dosis/g
Bone (% Dosis/g) (timepoint 4.0 h): 0.06 % Dosis/g
Brain (% Dosis/g) (timepoint 4.0 h): 0.02 % Dosis/g
Fat (% Dosis/g) (timepoint 4.0 h): 0.01 % Dosis/g
Gallbladder (% Dosis/g) (timepoint 4.0 h): 6.45 % Dosis/g
Heart (% Dosis/g) (timepoint 4.0 h): 0.04 % Dosis/g
Intestine (% Dosis/g) (timepoint 4.0 h): 0.93 % Dosis/g
Muscle (% Dosis/g) (timepoint 4.0 h): 0.03 % Dosis/g
Ovaries (% Dosis/g) (timepoint 4.0 h): 0.24 % Dosis/g
Pancreas (% Dosis/g) (timepoint 4.0 h): 0.27 % Dosis/g
Skin (% Dosis/g) (timepoint 4.0 h): 0.37 % Dosis/g
Spleen (% Dosis/g) (timepoint 4.0 h): 0.59 % Dosis/g
Stomach (% Dosis/g) (timepoint 4.0 h): 0.21 % Dosis/g
Summary: Carcass (timepoint 4.0 h): 1.09
Summary: faeces (timepoint 4.0 h): 0.25
Summary: organs (timepoint 4.0 h): 6.12
Tail (% Dosis/g) (timepoint 4.0 h): 0.55 % Dosis/g
Thyroid (% Dosis/g) (timepoint 4.0 h): 0.08 % Dosis/g
Tumor (% Dosis/g) (timepoint 4.0 h): 5.17 % Dosis/g
Tumor/Tissue: Adrenals (timepoint 4.0 h): 41.62
Tumor/Tissue: Blood (timepoint 4.0 h): 148.1
Tumor/Tissue: Bone (timepoint 4.0 h): 91.73
Tumor/Tissue: Brain (timepoint 4.0 h): 237.6
Tumor/Tissue: Fat (timepoint 4.0 h): 2513
Tumor/Tissue: Gallbladder (timepoint 4.0 h): 1.11
Tumor/Tissue: Heart (timepoint 4.0 h): 153.2
Tumor/Tissue: Intestine (timepoint 4.0 h): 5.57
Tumor/Tissue: Kidney (timepoint 4.0 h): 28.19
Tumor/Tissue: Liver (timepoint 4.0 h): 18.60
Tumor/Tissue: Lung (timepoint 4.0 h): 227.5
Tumor/Tissue: Muscle (timepoint 4.0 h): 185.7
Tumor/Tissue: Ovaries (timepoint 4.0 h): 21.39
Tumor/Tissue: Pancreas (timepoint 4.0 h): 19.41
Tumor/Tissue: Skin (timepoint 4.0 h): 16.05
Tumor/Tissue: Spleen (timepoint 4.0 h): 8.58
Tumor/Tissue: Stomach (timepoint 4.0 h): 24.28
Tumor/Tissue: Thyroid (timepoint 4.0 h): 64.78
Tumor/Tissue: Uterus (timepoint 4.0 h): 23.55
Uterus (% Dosis/g) (timepoint 4.0 h): 0.21 % Dosis/g
Summary: urine (timepoint 4.0 h): 92.66
Summary: Recovery (timepoint 4.0 h): 100.1
Structure (SMILES): N[C@@H](CCC(Cc1ccc(OCC[18F])cc1)C(=O)O)C(=O)O (stereo partly drawn) [[^18F]-12] [(2S)-2-Amino-5-[4-(2-[^18F]fluoroethoxy)benzyl]hexanedioic acid]
